# Patent US4861772A, “Method and composition to treat panic syndrome” (Hoffmann-La Roche Inc., priority 1988, dated 1989)
# Experiments:
# patients = experiment: Clinically relevant effects noticed by patients (onset); format: in vivo, human; settings: 1 mg perorally in tablet form; generally
# Description: (§1) After 1 mg of compound A has been taken perorally in tablet form a maximal active substance level is already reached after 45 minutes. Clinically relevant effects, that is, effects noticed by patients, generally occur already after 10 minutes.
# [1] = test system: patients with panic syndrome; experiment: Side effects in the clinical study in patients with panic syndrome; format: in vivo, human
# Description: (§2) The clinical study is a double-blind, parallel group study in which in each case 12 patients with panic syndrome were treated either with compound A, that is, tablets containing 0.5 mg of active substance or with a corresponding placebo. The course of the trial was the following. After examining the inclusion and exclusion criteria and recording the basic data, the patients each received 20 tablets with instructions to take one tablet at the approach or beginning of the next panic attack. The medicaments previously used had been withdrawn before the commencement of the study. In the case of a satisfactory outcome of treatment the initial dosage was to be used a once more. Then, for the second investigation, the investigator was to be consulted. In the case of an unsatisfactory outcome of therapy, the dosage in the case of the second panic attack was to be increased to two tablets, which dosage was to be repeated in the case of success and, in the case of failure, was to be increased to three tablets. […] Patients with ineffective medication were to be discharged from the trial. Patients in whom an effective dosage had been found would use that dose in the next twelve panic states. In cases in which withdrawal phenomena of the preceding treatment played a role, the twelve treatments of the main treatment phase can be extended with an additional twelve dosages in a further phase, additional phase.
# (§3) During the treatment, the patients were required to carry a treatment day book. On the basis of the remarks contained therein, the statements of the patients as well as specific observations, the results of the trial at the end of the titration phase (investigation 2), at the end of the main treatment phase (investigation 3) and, if desired, at the end of the additional phase (investigation 4) were introduced into the trial data by the investigator. The following psychiatric scales were filled out as standardized comparative investigations at all points in time of the trial: anxiety scale according to Covi, depression scale according to Raskin, self-evaluated anxiety scale (SAS) and self-evaluated depression scale (SDS) according to Zung, as well as the withdrawal symptom scale (WSS) according to Merz & Ballmer.
# The following side effects were found:
# ^3 MRA = "Mean Risk per Administration", i.e. the risk at which the
# particular side effect is incurred by a single intake of the medicament.
# From the list of side effects, it is evident that the […] has less benzodiazepine-typical side effects of the sedative and motor type.
# [2] = test system: patients with panic syndrome; experiment: Double-blind, parallel group clinical study in patients with panic syndrome (end point analysis); format: in vivo, human
# Description: The results of a clinical study will be referred to as an example of the use and the effect of discontinuous therapy of panic attacks by means of compound A.
# as §2, §3
# In each case, 12 patients were treated with compound A or placebo. In the group treated with compound A, 7 were male and 5 female with an average age of 33±5.4 years, of which--according to the DSM-III classification--2 suffered from panic syndrome without agoraphobia and 10 suffered from panic syndrome with agoraphobia. The diagnosis of a major depression was also established in 6 cases.
# The average duration of the disorder amounted to 98±83 months in the group treated with compound A and to 143±164 months in the placebo group. The weekly frequency of panic states was 5.6±3.2 in the group treated with compound A and 7.6±5.6 in the placebo group. In this calculation, a runaway in the placebo group which fell outside the average value and the five-fold standard deviation was not taken into consideration. The average duration of the panic attacks was 27±17 minutes in the group treated with compound A and 25±16 minutes in the placebo group. Nine (9) patients treated with compound A and 10 placebo patients were able to predict attacks with an average prediction time of 11±12 minutes in the group treated with compound A and 10±7 minutes in the placebo group.
# Because of the different lengths of the total treatment, average duration 43±27 days in the group treated with compound A and 28±32 days in the placebo group and because of the unequal distribution of the exclusions and drop-outs, the following results are presented in the form of an end point analysis: […]
# [3] = Plasma level after peroral intake of compound A in tablet form; format: in vivo; settings: human, po, 1 mg perorally in tablet form
# Description: as §1
structure (smiles),measurement,setting,value
"CC(C)(C)OC(=O)c1ncn2c1[C@@H]1CCCN1C(=O)c1c(Br)cccc1-2 [Compound A, t-butyl (S)-8-bromo-11,12,13,13a-tetrahydro-9-oxo-9H-imidazo[1,5-a]pyrrolo[2,1-c][1,4]benzodiazepine-1-carboxylate]",time to clinically relevant effects (noticed by patients),patients,10 min
same,quality of the observed side effects,"[1]; CGI evaluation, in total",only of minimal quality
same,tolerance,[1]; all together,satisfactory tolerance
same,"Coarse muscular relaxation, No. Pat.","[1]; number of patients, of 12",1
same,"Dopiness, No. Pat.","[1]; number of patients, of 12",5
same,"Drowsiness, No. Pat.","[1]; number of patients, of 12",9
same,"Dry mouth, No. Pat.","[1]; number of patients, of 12",1
same,"Headache, No. Pat.","[1]; number of patients, of 12",1
same,"Nausea, No. Pat.","[1]; number of patients, of 12",1
same,"Slurred speech/""heavy tongue"", No. Pat.","[1]; number of patients, of 12",2
same,"Unsteadiness when walking or standing, No. Pat.","[1]; number of patients, of 12",4
same,"Coarse muscular relaxation, No. Reg.",[1]; number registered,2
same,"Dopiness, No. Reg.",[1]; number registered,60
same,"Drowsiness, No. Reg.",[1]; number registered,45
same,"Dry mouth, No. Reg.",[1]; number registered,2
same,"Headache, No. Reg.",[1]; number registered,2
same,"Nausea, No. Reg.",[1]; number registered,9
same,"Slurred speech/""heavy tongue"", No. Reg.",[1]; number registered,5
same,"Unsteadiness when walking or standing, No. Reg.",[1]; number registered,13
same,duration of side effects as part of the total treatment period,[1]; on average,0.96±1.01%
same,total duration of side effects,[1]; on average,7.8 ± 7.6 h
same,"Coarse muscular relaxation, MRA (Mean Risk per Administration)",[1]; risk per single intake,0.7%
same,"Dopiness, MRA (Mean Risk per Administration)",[1]; risk per single intake,21.8%
same,"Drowsiness, MRA (Mean Risk per Administration)",[1]; risk per single intake,16.4%
same,"Dry mouth, MRA (Mean Risk per Administration)",[1]; risk per single intake,0.7%
same,"Headache, MRA (Mean Risk per Administration)",[1]; risk per single intake,0.7%
same,"Nausea, MRA (Mean Risk per Administration)",[1]; risk per single intake,3.3%
same,"Slurred speech/""heavy tongue"", MRA (Mean Risk per Administration)",[1]; risk per single intake,1.8%
same,"Unsteadiness when walking or standing, MRA (Mean Risk per Administration)",[1]; risk per single intake,4.7%
same,antipanic activity,[2]; conclusion from the clinical comparison,specific antipanic activity
same,Δ frequency of attack per week (n),"[2]; n = 12, p < 0.05 vs placebo",-2.6 ± 3.3 n
same,Average treatment period,"[2]; n = 12, p < 0.05 vs placebo (Mann-Whitney U test)",43 ± 27 days
same,Δ withdrawal symptom scale (WSS),[2]; n.s. vs placebo,-3.9 ± 6.8
same,Δ Covi anxiety scale (outside evaluation),[2]; p < 0.001 vs placebo,3.3 ± 3.2
same,Δ Raskin depression scale (outside evaluation),[2]; p < 0.001 vs placebo,1.9 ± 3.2
same,Δ Zung anxiety scale (self evaluation),[2]; p < 0.001 vs placebo,6.4 ± 8.5
same,Δ Zung depression scale (self evaluation),[2]; p < 0.001 vs placebo,4.5 ± 9.0
same,Average improvement in phobias,"[2]; scale as initial intensity, p < 0.001 vs placebo",2.2 ± 1.0
same,Reduction in the intensity of attack,"[2]; score 4 = complete, 3 = strong, 2 = weak, 1 = no effect, p < 0.01 vs placebo",3.5 ± 0.9
same,Average number of tablets at the end of treatment,"[2]; tablets of 0.5 mg, n = 12, p < 0.001 vs placebo",1.4 ± 0.9
same,secondary panic symptoms in untreated intervals between successive panic attacks,[2]; vs placebo,reduced significantly better than by placebo
same,Tmax,[3]; read-out: time to maximal active substance level (converted),0.75 h
same,half-life,[3]; read-out: β-half life (converted),2.25 h
